Results as given in publication PMC4906958 (Journal of the American Chemical Society, 2016).

Assays:
MelB of E. coli (MelBEc) [1] = target: T1, MelB of E. coli (MelBEc) (Escherichia coli, UniProt P02921); test: Trp to D2G FRET, reversed by melibiose, in detergent extract; format: cell-based
MelB of E. coli (MelBEc) [2] = target: T1, MelB of E. coli (MelBEc); test: melibiose reversal of Trp to D2G FRET in detergent extract; format: cell-based
[3] = target: LeuT (leucine transporter) (Aquifex aeolicus, UniProt O67854); test: radioligand binding by scintillation proximity assay

T1 sequence (P02921 2-473): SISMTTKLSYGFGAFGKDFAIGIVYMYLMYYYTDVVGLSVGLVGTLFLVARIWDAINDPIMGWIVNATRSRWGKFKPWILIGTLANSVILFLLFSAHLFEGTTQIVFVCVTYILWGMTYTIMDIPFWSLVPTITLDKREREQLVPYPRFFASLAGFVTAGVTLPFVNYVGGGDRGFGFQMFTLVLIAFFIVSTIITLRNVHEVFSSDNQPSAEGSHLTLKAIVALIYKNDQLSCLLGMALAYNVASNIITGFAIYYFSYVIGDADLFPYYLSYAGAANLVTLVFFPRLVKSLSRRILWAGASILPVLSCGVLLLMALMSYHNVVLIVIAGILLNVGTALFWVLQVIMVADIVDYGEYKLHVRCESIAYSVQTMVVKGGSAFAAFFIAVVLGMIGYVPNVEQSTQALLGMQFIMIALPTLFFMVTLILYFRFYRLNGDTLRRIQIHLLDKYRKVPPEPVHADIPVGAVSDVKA

## CN(C)c1cccc2c(S(=O)(=O)NCCS[C@@H]3O[C@H](CO)[C@H](O)[C@H](O)[C@H]3O)cccc12 [D2G, dansyl-2-galactoside]
MelB of E. coli (MelBEc) [1]
  Trp to D2G FRET, reversed by melibiose, in detergent extract: Melibiose reversal of Trp to dansyl-2-galactoside (D^2G) FRET.

## OC[C@H]1O[C@H](OC[C@H]2OC(O)[C@H](O)[C@@H](O)[C@@H]2O)[C@H](O)[C@@H](O)[C@H]1O (stereo partly drawn) [melibiose]
MelB of E. coli (MelBEc) [2]
  melibiose reversal of Trp to D2G FRET in detergent extract: MelBEc in PSE-C11 maintained the melibiose binding, which is similar to that observed for the protein in MNG-3

## CC(C)C[C@H](N)C(=O)O [leucine]
[3]
  radioligand binding by scintillation proximity assay (SPA): measuring the ability to bind a radio-labelled ligand ([^3H]-leucine) via scintillation proximity assay (SPA)
